Read-outs that look alike come from different tables or passages of the source.
Columns and labels:
[1] = amide bond, 18-membered ring
[2] = target: T1, HCV genotype 1b (BK) NS3 modified enzyme with a R155K mutation (Hepatitis C virus genotype 1b, UniProt P26663, R1181K); assay: HCV NS3 protease time-resolved fluorescence (TRF) assay, genotype 1b R155K; assay type: biochemical; details: Ki 1b R155K, genotype 1b (BK) NS3 R155K; single value
T1 construct: HCV genotype 1b (BK) NS3 modified enzyme
Outline: (§1)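 NS3/NS4A protease was pre-incubated 10 min with inhibitor in 50 mM HEPES pH 7.5, 150 mM NaCl, 15% glycerol, 0.15% Triton X-100, 10 mM DTT, 0.1% PEG 8000. TRF peptide substrate (25 nM final) was hydrolysed for 6 h at room temperature. IC50 came from four-parameter fits.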

[3] = target: HCV NS3 protease genotype 3a (3A-1) (Hepatitis C virus genotype 3a, UniProt Q81258); assay: HCV NS3 protease time-resolved fluorescence (TRF) assay, genotype 3a; assay type: biochemical; details: Ki 3a
Outline: as §1

## CCOC(=O)[C@@]12C[C@H]1/C=C\CCCCC[C@@H]1NC(=O)O[C@@H]3C[C@H]3CCC/C=C/c3c(nc4ccccc4c3OCCN3CCCCC3)O[C@@H]3C[C@@H](C(=O)N2)N(C3)C1=O
From CCOC(=O)[C@@]12C[C@H]1/C=C\CCCCC[C@H](NC(=O)O[C@@H]1C[C@H]1CCC/C=C/B1OC(C)(C)C(C)(C)O1)C(=O)N1C[C@H](Oc3nc4ccccc4c(OCCN4CCCCC4)c3Br)C[C@H]1C(=O)N2, cc_pd bond, Pd(OAc)2/cataCXium A, Cs2CO3, dioxane, 36.6 mM, 100.0 °C, 1.0 h
  ring closure, yield of all isomers: 64.1%

## CCOC(=O)[C@@]12C[C@H]1C=CCCCCC[C@H](NC(=O)OC(C)(C)C)C(=O)N1C[C@@H](OS(=O)(=O)c3ccc(Br)cc3)C[C@H]1C(=O)N2C(=O)OC(C)(C)C
From C=CCCCCC[C@H](NC(=O)OC(C)(C)C)C(=O)N1C[C@@H](OS(=O)(=O)c2ccc(Br)cc2)C[C@H]1C(=O)N(C(=O)OC(C)(C)C)[C@]1(C(=O)OCC)C[C@H]1C=C, rcm bond, Zhan catalyst 1B, 1,2-dichloroethane, 10.0 mM, 75.0 °C, 2.0 h
  ring closure, yield of all isomers: 84.8%

## CCOc1c2c(nc3ccccc13)O[C@@H]1C[C@@H](C(=O)OC)N(C1)C(=O)[C@H](C1CCCC1)NC(=O)O[C@@H]1CCC[C@H]1CCC=CC2
From C=CCC[C@@H]1CCC[C@H]1OC(=O)N[C@H](C(=O)N1C[C@H](Oc2nc3ccccc3c(OCC)c2CC=C)C[C@H]1C(=O)OC)C1CCCC1, rcm bond, Zhan catalyst 1B, 1,2-dichloroethane, 6.79 mM, 25.0 °C, 4.0 h
  ring closure, yield of all isomers: 79.2%

## COC(=O)[C@@H]1C[C@@H]2CN1C(=O)[C@H](C(C)(C)C)NC(=O)O[C@H]1C[C@@H]1CCCCCc1c(nc3ccncc3c1OC1CCN(C)CC1)O2
From COC(=O)[C@@H]1C[C@@H](Oc2nc3ccncc3c(OC3CCN(C)CC3)c2CCCCC[C@@H]2C[C@H]2OC(=O)N[C@H](C(=O)OC(C)(C)C)C(C)(C)C)CN1C(=O)OC(C)(C)C, amide bond, HATU, DMF, 51.5 mM, 25.0 °C, 1.5 h, 2 steps
  ring closure, yield of all isomers: 44.7%
[1]; HATU, 2 steps
  ring closure, isolated yield: 44.7%

## COC(=O)[C@@H]1C[C@@H]2CN1C(=O)[C@H](C1(C)CCCCC1)NC(=O)O[C@@H]1C[C@H]1CCCC#Cc1c(nc3ccccc3c1OCc1ccccc1)O2
From COC(=O)[C@@H]1C[C@@H](Oc2nc3ccccc3c(OCc3ccccc3)c2C#CCCC[C@@H]2C[C@H]2OC(=O)N[C@H](C(=O)O)C2(C)CCCCC2)CN1, amide bond, HATU, DMF, 50.0 mM, 25.0 °C, 3.0 h
  ring closure, yield of all isomers: 58.8%
[1]; from COC(=O)[C@@H]1C[C@@H](Oc2nc3ccccc3c(OCc3ccccc3)c2C#CCCC[C@@H]2C[C@H]2OC(=O)N[C@H](C(=O)O)C2(C)CCCCC2)CN1, HATU/DIEA, DMF, 50.0 mM
  ring closure, isolated yield: 58.8%

## COC(=O)[C@@H]1C[C@@H]2CN1C(=O)[C@H](C1Cc3ccccc3C1)NC(=O)O[C@@H]1C[C@H]1CCCC#Cc1c(nc3ccccc3c1OCc1ccccc1)O2
From COC(=O)[C@@H]1C[C@@H](Oc2nc3ccccc3c(OCc3ccccc3)c2C#CCCC[C@@H]2C[C@H]2OC(=O)N[C@H](C(=O)O)C2Cc3ccccc3C2)CN1, amide bond, HATU, DMF, 50.0 mM, 25.0 °C, 2.0 h
  ring closure, yield of all isomers: 80%
[1]; from COC(=O)[C@@H]1C[C@@H](Oc2nc3ccccc3c(OCc3ccccc3)c2C#CCCC[C@@H]2C[C@H]2OC(=O)N[C@H](C(=O)O)C2Cc3ccccc3C2)CN1, HATU/DIEA, DMF, 50.0 mM
  ring closure, isolated yield: 80%

## CC1(S(=O)(=O)NC(=O)[C@@]23C[C@H]2/C=C\CCCCC[C@@H]2NC(=O)O[C@@H]4C[C@H]4CCC/C=C/c4c(nc5ccccc5c4OCCCN4CCCC4)O[C@@H]4C[C@@H](C(=O)N3)N(C4)C2=O)CC1 [Example 303, (1aR,5S,11Z,12aS,13aR,16S,19R,27E, 31aR)-N-[(1-methylcyclopropyl)sulfonyl]-3,15,33-trioxo-26-[3-(pyrrolidin-1-yl)propoxy]-1,1a,3,4,5,6,7,8,9,10,12a,13,15,16,18, 19,29,30,31,31a-icosahydro-5,17:16,19-dimethanodicyclopropa[12,13:28,29] [1,20,3,14,17] dioxatriazacyclononacosino[21,22-b]quinoline-13a(14H)-carboxamide]
[2]
  Ki: 0.28 nM
[3]
  Ki: 3.6 nM

## CN1CCN(CCCOc2c3c(nc4ccccc24)O[C@@H]2C[C@H]4C(=O)N[C@]5(C(=O)NS(=O)(=O)C6(C)CC6)C[C@H]5/C=C\CCCCC[C@H](NC(=O)O[C@@H]5C[C@H]5CCC/C=C/3)C(=O)N4C2)CC1 [Example 304, (1aR,5S,11Z,12aS,13aR,16S,19R,27E, 31aR)-N-[(1-methylcyclopropyl)sulfonyl]-26-[3-(4-methylpiperazin-1-yl)propoxy]-3,15,33-trioxo-1,1a,3,4,5,6,7,8,9,10,12a,13,15,16,18, 19,29,30,31,31a-icosahydro-5,17:16,19-dimethanodicyclopropa[12,13:28,29] [1,20,3,14,17] dioxatriazacyclononacosino[21,22-b]quinoline-13a(14H)-carboxamide]
[2]
  Ki: 0.078 nM
[3]
  Ki: 1.2 nM

## COc1c2c(nc3ccccc13)O[C@@H]1C[C@H]3C(=O)N[C@]4(C(=O)NS(=O)(=O)C5(C)CC5)C[C@H]4/C=C\CCCCC[C@H](NC(=O)O[C@@H]4C[C@H]4CCCCC2)C(=O)N3C1 [Example 305, (1aR,5S,11Z,12aS,13aR,16S,19R,31aR)-26-methoxy-N-[(1-methylcyclopropyl)sulfonyl]-3,15,33-trioxo-1,1a,3,4,5,6,7,8,9,10,12a,13,15,16,18,19,27,28,29,30,31,31a-docosahydro-5,17:16,19-dimethanodicyclopropa[12,13:28,29][1,20,3,14,17]dioxatriazacyclononacosino[21,22-b]quinoline-13a(14H)-carboxamide]
[2]
  Ki: 0.066 nM
[3]
  Ki: 2 nM

## CC1(S(=O)(=O)NC(=O)[C@@]23C[C@H]2/C=C\CCCCC[C@@H]2NC(=O)O[C@@H]4C[C@H]4CCCCCc4c(nc5ccccc5c4OCCN4CCCC4)O[C@@H]4C[C@@H](C(=O)N3)N(C4)C2=O)CC1 [Example 306, (1aR,5S,11Z,12aS,13aR,16S,19R,31aR)—N-[(1-methylcyclopropyl)sulfonyl]-3,15,33-trioxo-26-[2-(pyrrolidin-1-yl)ethoxy]-1,1a,3,4,5,6,7,8,9,10,12a,13,15,16,18,19,27,28,29,30,31,31a-docosahydro-5,17:16,19-dimethanodicyclopropa[12,13:28,29][1,20,3,14,17]dioxatriazacyclononacosino[21,22-b]quinoline-13a(14H)-carboxamide]
[2]
  Ki: 0.083 nM
[3]
  Ki: 0.72 nM

Reference: patent US9328138B2 (priority 2011, dated 2016)
